In ChEMBL document CHEMBL1122867, “Inhibition of human leukocyte elastase, porcine pancreatic elastase, and chymotrypsin by elasnin and other 4-hydroxy-2-pyrones” (J Med Chem, 1985):

Legend:
[1] = biological target: Chymotrypsin-like elastase family member 1 (Sus scrofa, UniProt P00772); experiment: Inhibitory activity against porcine pancreatic elastase (PP elastase) expressed as inhibitory constant
[2] = biological target: T1, Neutrophil elastase (Homo sapiens, UniProt P08246); experiment: Inhibitory activity against human leukocyte elastase (HL elastase) expressed as inhibitory constant
T1 sequence (P08246 whole entry): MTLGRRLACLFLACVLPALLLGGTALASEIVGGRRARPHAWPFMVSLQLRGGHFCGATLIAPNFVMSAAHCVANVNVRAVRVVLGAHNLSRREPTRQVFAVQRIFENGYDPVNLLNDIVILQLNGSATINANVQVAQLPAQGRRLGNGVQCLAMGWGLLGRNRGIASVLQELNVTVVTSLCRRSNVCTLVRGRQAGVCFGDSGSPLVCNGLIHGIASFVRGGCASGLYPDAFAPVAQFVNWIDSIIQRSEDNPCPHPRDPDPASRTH

[3] = Partition coefficient (logP) (octanol/saline); assay type: physicochemical

Chain of Chymotrypsin-like elastase family member 1 (P00772 whole entry): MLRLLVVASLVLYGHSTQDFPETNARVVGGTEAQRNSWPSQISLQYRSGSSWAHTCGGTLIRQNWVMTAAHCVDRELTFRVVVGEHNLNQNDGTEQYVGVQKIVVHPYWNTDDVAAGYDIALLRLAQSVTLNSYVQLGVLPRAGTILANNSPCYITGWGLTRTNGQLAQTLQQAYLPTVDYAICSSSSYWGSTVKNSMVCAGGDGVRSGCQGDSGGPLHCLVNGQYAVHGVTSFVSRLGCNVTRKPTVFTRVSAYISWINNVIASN

| Ki [1] [µM] | Ki [2] [µM] | logP [3] | SMILES |
| --- | --- | --- | --- |
| 21.4 | 95.5 | 1.21 | CCCCc1c(C(CCCC)C(=O)c2ccccc2)oc(=O)c(CCCC)c1O (stereo unspecified) |
| 2140 | 977 | 0.78 | Cc1c(O)cc(CC(=O)c2ccccc2)oc1=O |
| 316 | 339 | 2.17 | CCCCc1c(C2OC2C)oc(=O)c(CCCC)c1OC(C)=O (stereo unspecified) |
| 8.13 |  | 3.53 | CCCCCC(=O)C(CCCC)c1oc(=O)c(CCCC)c(OC(C)=O)c1CCCC (stereo unspecified) |
| 69.2 | 93.3 | 2.52 | CCCCCC(=O)C(CCCC)c1oc(=O)c(CCCC)c(O)c1CCCC (stereo unspecified) |
| 251 | 288 | 2.82 | CCCCc1c(CC(C)=O)oc(=O)c(CCCC)c1OC(C)=O |
|  | 10000 | 0.43 | O=C(Cc1cc(=O)cc(O)o1)c1ccccc1 |
| 3240 | 6030 | 0.73 | Cc1c(CC(=O)c2ccccc2)oc(=O)c(C)c1O |
| 741 | 490 | 1.74 | CCCCc1c(CC(C)=O)oc(=O)c(CCCC)c1O |
| 3090 | 8130 | 0.5 | Cc1cc(O)cc(=O)o1 [4-HYDROXY-6-METHYLPYRAN-2-ONE] |
| 3890 | 6310 | 0.74 | Cc1cc(O)c(C)c(=O)o1 |
| 15.1 | 151 | 1.52 | CCCCCCC(C=O)(CCCC)c1oc(=O)c(CCCC)c(O)c1CCCC (stereo unspecified) |
| 1070 | 347 | 1.92 | CCCCc1c(CC(C)O)oc(=O)c(CCCC)c1OC(C)=O (stereo unspecified) |
| 141 | 363 | 1.39 | C/C=C(\c1ccccc1)c1oc(=O)c(CCCC)c(O)c1CCCC |
| 562 | 646 | 0.79 | CCCCc1c(C)oc(O)c(CCCC)c1=O |
| 21900 | 4900 | 0.36 | Cc1oc(=O)c(C)c(O)c1C |
